The source of these data is patent US11478466B2, “Small molecule promoting osteoblast differentiation” (Cornell University, priority 2019, dated 2022).

Common to all, as to type: cell-based, mouse
Test [1] has as its system JNK p54. The experiment in a line: Western blotting of JNK in C2C12 cells. As to the method: (§1) Whole cell extracts were collected from C2C12 or BRITER cells in complete lysis buffer (20 mM Tris, 150 mM NaCl, 50 mM NaF, 1% NP40 substitute, HALT protease inhibitor cocktail (ThermoScientific). Proteins were resolved by electrophoresis on pre-cast 10% NuPage Bis-Tris gels (Invitrogen) and transferred to PVDF membranes (Bio-Rad). Membranes were blocked in 5% BSA-TBS-0.5% Tween-20 for 15 minutes, then incubated at 4° overnight with primary antibodies. Antibodies used were: rabbit anti-phospho-p38 MAPK (cat. no. 9211), anti-p38 MAPK XP (8690), anti-phospho-SMAD1/5 (9516), anti-SMAD1 XP (6944), anti-phospho-SMAD2/3 (8828), anti-SMAD2/3 XP (8685), anti-phospho-JNK (4668), anti-SAPK/JNK (9252), anti-phospho-Akt XP (4060), pan anti-Akt (4691), anti-phospho ERK p42/p44 (4377), anti-ERK p42/p44 (9102), anti-phospho-MKK3/6 (12280), anti-MKK3 (8535), anti-phospho-TAK1 (4531), anti-TAK1 (5206), anti-HA (3274), and anti-FLAG (14793); all from Cell Signaling); and mouse anti-p38α (cat. no. 33-1300), anti-p38β (33-8700; both ThermoFisher) and anti-β-actin (Sigma A1978). Proteins were visualized with HRP-conjugated secondary antibodies (Bio-Rad) with WestPico (ThermoFisher) or Immobilon (Millipore) chemiluminescence reagents. Images were obtained and analyzed for relative densitometric relationships on a LI-COR C-DiGit scanner using Image Studio software.
A general note: Immunoblotting shows a protein as a band on a membrane.

Test [2] relates to alkaline phosphatase (ALP). The experiment in a line: ALP expression staining in C2C12 cells. The following applies: C2C12, 2 days, 10 μM. As to the method:
C2C12 cells were treated for 2 days with 10 μM DIPQUO or structural analogs, 1 ng/ml rhBMP4, or with inhibitors as noted in figure legends, and then fixed briefly in 70% acetone/10% formaldehyde/20% citrate. Staining was achieved using the leukocyte alkaline phosphatase kit (Sigma 86R-1KT) according to the manufacturer's instructions. Expression of ALP was confirmed and quantified by flow cytometric analysis, using an Accuri C6 flow cytometer. Briefly, control- or DIPQUO-treated C2C12 cells were detached and harvested on day 2 using PBS-based enzyme-free cell detachment solution (ThermoFisher). 2×10^5 cells were incubated on ice for 30 minutes with 10 μl APC-conjugated ALPL antibody (R&D Systems), and washed in ice-cold PBS before analysis. Live cells were gated and analyzed in CFlow Plus software and then data was converted to FlowJo to achieve publication-level resolution. For siRNA experiments, gene-specific oligonucleotides were obtained for mouse p38-alpha (Cell Signaling) and p38-beta (Santa Cruz). Signal Silence scramble siRNA control oligonucleotide was purchased from Cell Signaling. C2C12 cells at 70% confluency were transfected in 12-well plates using Lipofectamine RNAiMax reagent (Invitrogen) according to manufacturer's instructions. Transfected cells were treated 24 hours later with DMSO or 10 μM DIPQUO, and siRNA transfection was repeated after 48 hours without changing culture media. After an additional 3 days, cells were either fixed and stained for ALP expression or analyzed for ALP activity using the AttoPhos Substrate kit. Hemagglutinin and FLAG epitope-tagged MKK3 (pMT2-HA-MKK3) and MKK6 (pcDNA3-FLAG-MKK6) constructs were obtained from Addgene and transfected into C2C12 cells using Lipofectamine LTX with Plus Reagent (ThermoFisher) according to manufacturer's instructions and cell extracts analyzed for protein expression and activity as described below.

Test [3] relates to p38 MAPK. The experiment in a line: Western blotting of p38 MAPK phosphorylation in C2C12 cells. The settings on record: C2C12, western blotting. As to the method: as §1

With `N#CC(c1ccnc(NCCc2cccnc2)n1)c1nc2ccccc2s1` (stereo not drawn) [JNK inhibitor V, reference compound], the “JNK p54 signaling” value in test [1] is reported as “suppress JNK p54”. In addition, the “ALP expression by staining” value in test [2] was “did not lead to ALP-positive staining”. Further, the “p38 MAPK signaling (phosphorylation)” value in test [3] is on record as “activate p38 MAPK”.
